Laboratory results taken from publication PMC3914206.

Key:
[1] = molecular target: T1, panel of 442 kinases (Homo sapiens, UniProt Q6ZN16); assay type: binding; conditions: Compound Concentration 10 µM
T1 construct: purchased KINOMEscan
T1 sequence (Q6ZN16 1-1313): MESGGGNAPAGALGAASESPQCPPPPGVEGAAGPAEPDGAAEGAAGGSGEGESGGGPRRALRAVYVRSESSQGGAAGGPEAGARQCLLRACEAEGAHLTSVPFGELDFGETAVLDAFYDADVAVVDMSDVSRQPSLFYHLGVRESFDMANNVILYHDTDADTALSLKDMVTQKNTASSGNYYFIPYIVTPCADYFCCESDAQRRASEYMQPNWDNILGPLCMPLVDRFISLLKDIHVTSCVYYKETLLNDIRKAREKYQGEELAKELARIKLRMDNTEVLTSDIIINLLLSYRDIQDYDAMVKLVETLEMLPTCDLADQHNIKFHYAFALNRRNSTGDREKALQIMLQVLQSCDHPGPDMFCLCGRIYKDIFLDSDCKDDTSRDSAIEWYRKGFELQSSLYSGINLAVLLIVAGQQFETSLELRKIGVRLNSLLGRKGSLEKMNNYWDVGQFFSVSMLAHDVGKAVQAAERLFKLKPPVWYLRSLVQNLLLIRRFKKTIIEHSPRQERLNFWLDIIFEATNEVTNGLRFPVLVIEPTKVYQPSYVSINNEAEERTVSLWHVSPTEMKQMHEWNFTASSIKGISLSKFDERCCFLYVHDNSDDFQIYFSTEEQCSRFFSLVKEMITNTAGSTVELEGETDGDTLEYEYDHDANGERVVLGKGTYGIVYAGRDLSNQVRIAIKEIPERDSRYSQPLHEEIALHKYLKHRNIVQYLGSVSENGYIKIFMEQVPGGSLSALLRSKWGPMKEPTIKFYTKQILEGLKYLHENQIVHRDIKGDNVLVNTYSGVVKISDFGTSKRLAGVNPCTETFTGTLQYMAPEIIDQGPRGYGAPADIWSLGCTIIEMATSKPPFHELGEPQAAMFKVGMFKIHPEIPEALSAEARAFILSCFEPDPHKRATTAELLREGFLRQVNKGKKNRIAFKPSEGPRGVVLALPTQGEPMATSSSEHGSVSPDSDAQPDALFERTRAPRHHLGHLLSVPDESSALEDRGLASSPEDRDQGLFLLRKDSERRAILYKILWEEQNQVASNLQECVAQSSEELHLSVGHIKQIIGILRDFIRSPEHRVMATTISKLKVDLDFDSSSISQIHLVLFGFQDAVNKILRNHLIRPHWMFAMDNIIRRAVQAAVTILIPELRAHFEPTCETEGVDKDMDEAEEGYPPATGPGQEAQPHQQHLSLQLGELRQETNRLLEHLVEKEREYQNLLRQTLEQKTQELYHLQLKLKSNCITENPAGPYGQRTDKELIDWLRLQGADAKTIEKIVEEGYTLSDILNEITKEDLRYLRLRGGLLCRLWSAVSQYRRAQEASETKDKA
Source text: (§1) We assessed the selectivity of members of this scaffold using the KINOMEscan methodology across a near comprehensive panel of 442 kinases [[18,27]].

[2] = molecular target: T2, panel of 442 kinases (Homo sapiens, UniProt Q9H2X6); assay type: binding; conditions: Compound Concentration 10 µM
T2 construct: purchased KINOMEscan
Source text: as §1

T2 sequence (Q9H2X6 whole entry): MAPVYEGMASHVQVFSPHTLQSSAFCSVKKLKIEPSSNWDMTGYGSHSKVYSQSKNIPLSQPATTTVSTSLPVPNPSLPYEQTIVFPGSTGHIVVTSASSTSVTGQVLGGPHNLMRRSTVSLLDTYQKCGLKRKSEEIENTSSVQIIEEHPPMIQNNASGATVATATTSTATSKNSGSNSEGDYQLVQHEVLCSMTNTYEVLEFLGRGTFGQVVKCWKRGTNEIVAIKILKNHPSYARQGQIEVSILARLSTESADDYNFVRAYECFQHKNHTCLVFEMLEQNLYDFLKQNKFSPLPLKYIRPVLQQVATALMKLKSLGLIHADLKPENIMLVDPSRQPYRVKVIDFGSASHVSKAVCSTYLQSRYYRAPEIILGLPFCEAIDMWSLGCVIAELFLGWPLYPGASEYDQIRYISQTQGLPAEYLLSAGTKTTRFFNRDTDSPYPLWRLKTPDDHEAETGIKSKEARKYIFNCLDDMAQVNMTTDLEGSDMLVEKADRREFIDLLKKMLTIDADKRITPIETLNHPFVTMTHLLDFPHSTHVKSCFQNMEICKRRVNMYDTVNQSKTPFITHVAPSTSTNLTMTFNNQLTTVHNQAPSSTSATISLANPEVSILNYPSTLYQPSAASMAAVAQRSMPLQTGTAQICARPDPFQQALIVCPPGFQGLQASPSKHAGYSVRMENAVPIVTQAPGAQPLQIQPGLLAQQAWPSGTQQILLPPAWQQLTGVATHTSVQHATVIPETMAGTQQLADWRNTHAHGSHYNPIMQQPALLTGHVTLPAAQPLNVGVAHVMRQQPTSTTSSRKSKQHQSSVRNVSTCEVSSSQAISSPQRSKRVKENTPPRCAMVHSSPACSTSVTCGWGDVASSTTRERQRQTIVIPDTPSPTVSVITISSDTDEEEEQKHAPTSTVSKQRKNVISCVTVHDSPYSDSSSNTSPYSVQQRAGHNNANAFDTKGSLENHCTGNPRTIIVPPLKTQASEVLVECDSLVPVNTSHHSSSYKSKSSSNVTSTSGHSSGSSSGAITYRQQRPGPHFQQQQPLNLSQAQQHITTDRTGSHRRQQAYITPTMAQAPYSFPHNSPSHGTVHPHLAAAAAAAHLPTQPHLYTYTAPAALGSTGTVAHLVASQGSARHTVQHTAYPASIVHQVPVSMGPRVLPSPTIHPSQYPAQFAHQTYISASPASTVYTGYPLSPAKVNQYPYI

| Compound | KINOMEscan: MAP3K15 [1] | KINOMEscan: HIPK2 [2] |
| --- | --- | --- |
| COc1cc(C(=O)N2CCC(N3CCN(C)CC3)CC2)ccc1Nc1ncc2c(n1)N1CCc3cccc(c31)C(=O)N2C [Compound 24] | 77 | 88 |
| CCOc1cc(C(=O)N2CCC(N3CCN(C)CC3)CC2)ccc1Nc1ncc2c(n1)N(C1CCCC1)c1ccccc1C(=O)N2C [Compound 26] | 95 | 100 |
| COc1cc(C(=O)N2CCC(N3CCN(C)CC3)CC2)ccc1Nc1ncc2c(n1)N(C1CCCC1)c1ccccc1C(=O)N2C [Compound 25, 11-cyclopentyl-2-((2-methoxy-4-(4-(4-methylpiperazin-1-yl)piperidine-1-carbonyl)phenyl)amino)-5-methyl-5H-benzo[e]pyrimido[5,4-b][1,4]diazepin-6(11H)-one] | 88 | 100 |
| COc1cc(C(=O)N2CCC(N3CCN(C)CC3)CC2)ccc1Nc1ncc2c(n1)N(C)c1ccccc1C(=O)N2C [15 (LRRK2-IN-1)] | 69 | 88 |
